Data published in US4279915A, “Method of treatment using new leurosine derivatives” (priority 1973, dated 1981).

Key:
[1] = tested on: lymphoma, leukemia and Hodgkins disease; test: antitumor activity; type: in vivo
solid tumors = test: clinical treatment of patients with solid tumors (Example B); type: in vivo, human; conditions: for decrease of prothrombin index and activity: by the 7th day of treatment
Method: N-formyl-leurosine was administered in form of i.v. injection as single treatment or in 5 and 2×5 day long periods continually to exclusively patients with solid tumors.
Simultaneously adjuvant therapy was applied (analgesics, antibiotics, cardiac drugs, roborants) if necessary.
Following single treatments primarily the effect on blood picture, and especially on leukocyte count was observed. In case of higher total doses given continuously for 5 or 10 days, liver function, enzymes, serum creatinine, uric acid level were also determined. The neurological condition of the patients was also controlled.

Yoshida ascites sarcoma = test: antitumor effect on Yoshida ascites sarcoma; type: in vivo
Description: The treatment extends the life span of animals suffering from L-1210 lymphoid leukemia, s37 ascites sarcoma or Yoshida ascites sarcoma by about 150 to 250 percent.
(§1) EFFECT OF F-LEUROSINE ON ASCITIC TUMORS

[2] = tolerability and therapeutical range in animal tests; type: in vivo
Method: A dose of 0.3 to 5.0 mg./kg. of body weight can also be used in human therapy, although the dosage can be as low as 0.01 mg./kg. daily.

NK/Ly lymphoma = test: antitumor effect on NK/Ly lymphoma; type: in vivo, mice
Description: This compound provides complete recovery or a 300 percent extension of life span in 50 to 70 percent of the cases, in tests on mice inoculated with Ehrlich ascites carcinoma or NK/Ly lymphoma.
as §1

[3] = tested on: granulocytes, lymphocytes, platelets; test: haematological parameters; type: in vivo
[4] = tested on: haemoblastoses and leukemia; test: clinical treatment of patients with haemoblastoses and leukemia (Example A); type: in vivo, human
Method: Based on the experiences obtained on 17 patients during the first half-year, further 8 patients with haemoblastoses and leukemia were given treatment. The patients were given daily 0.05 mg/kg single doses. The clinical examinations during the second half-year were performed with the same daily dose, but with different total doses. The smallest total amount meant 3, the highest 12 subsequent doses. The dosage was tested both in forms of sequential and intermittent treatment.
3 patients out of 8 received the drug sequentially, which meant single doses on subsequent days, the remaining 5 patients were given intermittent treatment.
The intermittent treatment was made in two ways: 1. Single doses through 3 days, followed by 5 days interval as total up to an amount of 12 times 0.05 mg/kg. 2. Single dose on the first day, followed by 3 days interval, up to a total amount of 12 times 0.05 mg/kg.
The route of administration was always intravenous, 1 mg active substance was dissolved in 10 ml physiological saline.

rhabdomyo-sarcoma = test: growth inhibition of induced and transplanted rhabdomyo-sarcoma; type: in vivo
[5] = 0.05 mg/kg daily dose, applied 3-12 times

In the case of `CCC12CN3CCc4c([nH]c5ccccc45)[C@@](C(=O)OC)(c4cc5c(cc4OC)N(C=O)[C@H]4[C@@](O)(C(=O)OC)[C@H](OC(C)=O)[C@]6(CC)C=CCN7CC[C@]54[C@@H]76)C[C@@H](C3)C1O2` (stereo partly shown) [N-formyl-leurosine], the antitumor activity [1] was “favorable antitumor activity”, the “tumor growth: progress during the treatment” value (solid tumors; 0.018 mg/kg during 2×5 days, one case) was “express progress during the treatment” and the “tumor growth: regression by X-ray and touching” value (solid tumors; 0.030 mg/kg during 2×5 days, one case) was “slight regression”. For the same molecule, the leukocyte count change (solid tumors; between the 3rd and 5th days) was “decreased again”, the leukocyte count level (solid tumors; between the 3rd and 5th days, remained over) was “over 3000” and the leukocyte count (solid tumors; between the 9th and 14th days) was “returns to the initial value”. The “tumor growth: other cases” value (solid tumors; continuous administration) was “No changes were found in other cases”, the “effect on tumor growth” value (solid tumors; continuous administration of 0.018-0.035 mg/kg doses) was “some effect was observed” and the qualitative blood picture (solid tumors; dose level presently used) was “no change was shown”. The “levels of enzymes (serum alk, phosphatase, SGOT, SGPT)” value (solid tumors; during the treatment) was “did not essentially change”, the leukocyte count (solid tumors; first 48 hours) was “increased” and the “liver function, urinalysis, serum creatinine and uric acid levels” value (solid tumors; human, in vivo) was “no changes or signs indicating toxicity were found”. For the same molecule, the neurological side-effects (solid tumors; human, in vivo) was “not observed”, the “decrease of prothrombin index and activity” value (solid tumors; one case) was 50% and the “prothrombin-time, increase” value (solid tumors; six cases) was “increased in three cases out of six”. For the same molecule, the “prothrombin time, decrease” value (solid tumors; two cases) was “very slightly decreased”, the “decrease of prothrombin index and activity” value (solid tumors; two cases) was 37% and the Survival (Yoshida ascites sarcoma; 9 × 0.5 mg/kg i.p. daily) was 143. For the same molecule, the Tumor free (Yoshida ascites sarcoma; 9 × 0.5 mg/kg i.p. daily) was 0/6, the Survival (Yoshida ascites sarcoma; 9 × 1.0 mg/kg i.p. daily) was 173 and the Tumor free (Yoshida ascites sarcoma; 9 × 1.0 mg/kg i.p. daily) was 2/6. For the same molecule, the Survival (Yoshida ascites sarcoma; 9 × 2.0 mg/kg i.p. daily) was 243, the Tumor free (Yoshida ascites sarcoma; 9 × 2.0 mg/kg i.p. daily) was 4/6 and the “extension of life span” value (Yoshida ascites sarcoma; Yoshida ascites sarcoma, about) was 150-250%. For the same molecule, the side-effects ([2]; 0.3 to 5.0 mg./kg. for prolonged periods, animals) was “without causing side-effects characteristic of and unavoidable with the known vinca-alkaloids”, the “therapeutical range compared with vincristine” value ([2]; animal tests) was “somewhat similar to that of vincristine” and the “therapeutical range compared with vinleurosine” value ([2]; animal tests) was “about four times broader than that of vinleurosine”. The “extension of life span” value (NK/Ly lymphoma) was 300%, the Survival (NK/Ly lymphoma; 8 × 0.5 mg/kg i.p. daily) was 250 and the Tumor free (NK/Ly lymphoma; 8 × 0.5 mg/kg i.p. daily) was 2/10. The “lowering of number of granulocytes” value ([3]; 0.6 mg/kg) was 50%, the number of lymphocytes ([3]; 15 mg/kg) was “decreased only after administration of 15 mg/kg” and the platelet count ([3]; similar dose level) was “No significant changes”. For the same molecule, the side effects [4, 5] was “does not produce any side effects”, the untoward neurological symptoms [4, 5] was “No untoward symptoms of a neurological respect appear” and the objective improvement ([4]; 0.05 mg/kg daily i.v., complete treatments) was “all complete treatments were followed by objective improvement”. The Complete remission ([4]; 0.05 mg/kg daily i.v., leukemic patients) was “both leukemic patients had complete remission”, the “effectiveness in acute leukemia and lymphomas” value ([4]; phase I examinations, acute leukemia (myeloblast and lymphoblast type) and lymphomas) was “equally effective in acute leukemia (myeloblast and lymphoblast type), and in lymphomas” and the cytostatic effect ([4]; summary) was “very effective cytostatic”. The growth inhibition (rhabdomyo-sarcoma) was “remarkable growth inhibition”.
